Data as given in patent US10329324B2 (viDA Therapeutics Inc., priority 2013, dated 2019).
Like-named read-outs stand apart in the source and are kept apart here.

Legend:
human Granzyme B (hGzmB) = target: T1, human Granzyme B (hGzmB) (Homo sapiens, UniProt P10144); experiment: Human Granzyme B enzymatic inhibition assay (fluorogenic, kinetic); format: biochemical; conditions: activity codes, Table 7; read-out: IC50 Activity Range
T1 construct: purchased Froelich Lab, Northshore University Health Systems Research Institute, Evanston, Ill., USA
T1 sequence (P10144 21-247): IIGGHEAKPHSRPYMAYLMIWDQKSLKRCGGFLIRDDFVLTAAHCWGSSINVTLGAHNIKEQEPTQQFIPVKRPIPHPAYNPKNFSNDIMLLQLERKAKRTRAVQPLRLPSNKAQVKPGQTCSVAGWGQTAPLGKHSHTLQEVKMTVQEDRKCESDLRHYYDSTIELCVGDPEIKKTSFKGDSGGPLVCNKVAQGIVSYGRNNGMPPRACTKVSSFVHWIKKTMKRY
Summary of the method: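 Human Granzyme B preincubated with compound for 30 min total (5 min shaking, 20 min bench, then reaction temperature). Fluorogenic substrate added and read kinetically, 25 cycles at 1-min intervals. Percent inhibition at one or two concentrations or 8–12-point 3-fold dose response from 20 uM, replicates, with IC50 by non-linear regression.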

[1] = Kinetic solubility determination in PBS; format: physicochemical; conditions: PBS 1X pH 7.4, 2.0% DMSO, 24 hour incubation at ambient temperature; for solubility at 24 h: phosphate buffered saline (PBS 1×), 21 °C, pH 7.4, aqueous buffer, kinetic from dmso stock
Protocol: Kinetic solubility buffer (phosphate buffered saline (PBS, 1×) at pH 7.4) was prepared from PBS (10×) solution, (Fisher Scientific, Pittsburgh, Pa., USA, 10×), by adding PBS (50 mL, 10×) to approximately water (450 mL HPLC grade). The volume of the solution was then adjusted to 500 mL for a total dilution factor of 1:10 and a final PBS concentration of 1×. The pH of the final solution (PBS (1×)) was measured and found to be 7.4.
A DMSO stock solution (typically 10 mM or greater) was used for each compound to be tested. A final DMSO concentration of 2.0% and maximum theoretical compound concentration of typically 200 μM (or greater) was achieved by diluting an aliquot (6 μl) of each stock with kinetic solubility buffer (294 μl, PBS (1×) at pH 7.4) using a liquid handling system (Hamilton STARlet, Hamilton Robotics, Inc., Reno, Nev., USA) and incubated directly in a solubility filter plate (Millipore, Billerica, Mass., USA). Following 24 hour incubation at ambient temperature (20.5-21.7° C.), each sample was vacuum filtered. The filtrate was injected into the chemiluminescent nitrogen detector for quantification (Automated Discovery Workstation, Analiza, Inc., Cleveland, Ohio, USA). Each result was reported both in μM and μg/mL units. Three separate on-board performance indicating standards were assayed in triplicate with each test compound to ensure test results were within the acceptable range.
The equimolar nitrogen response of the detector was calibrated using standards which spanned the dynamic range of the instrument from 0.08 to 4500 μg/ml nitrogen. Each filtrate was quantified with respect to this calibration curve. Each calculated solubility value was corrected for background nitrogen present in the DMSO, and buffer used to prepare each sample. All reported values for samples containing adjacent nitrogen atoms in a ring structure were corrected for the expected non-equimolar response. Each calculated solubility result assumed that each sample was free of nitrogen containing impurities and was stable under the assay conditions. Analyses were performed at Analiza Inc. (Cleveland, Ohio, USA) by published methods (Bhattachar, S. N., et al, J. Pharma. BioMed Anal. 41:152-7 2006).

[2] = read-out: Solubility in aqueous PBS Buffer (1X, pH 7.4)
[3] = read-out: Solubility in aqueous PBS Buffer (1X, pH 7.4), ug/mL

SMILES: CC[C@H](C)[C@H](NC(=O)CC(C)CC(=O)O)C(=O)NCC(=O)N1c2ccccc2C[C@H]1C(=O)NCc1nn[nH]n1 (single isomer, unassigned) [Example A17-1]
- IC50 (human Granzyme B (hGzmB)): 100 to 1000 nM
- solubility at 24 h [1, 2]: > 750 µM
- solubility at 24 h [1, 3]: > 407 µg/mL

SMILES: CC[C@H](C)[C@H](NC(=O)CC(C)CC(=O)O)C(=O)NCC(=O)N1c2ccccc2C[C@H]1C(=O)NCc1nn[nH]n1 (single isomer, unassigned) [Example A17-2]
- IC50 (human Granzyme B (hGzmB)): 100 to 1000 nM
- Solubility in aqueous PBS Buffer (1X, pH 7.4), uM [1]: >750 uM
- Solubility in aqueous PBS Buffer (1X, pH 7.4), ug/mL [1]: >407 ug/mL

SMILES: CC[C@H](C)[C@H](NC(=O)C1CCCCC1C(=O)O)C(=O)NCC(=O)N1c2ccccc2C[C@H]1C(=O)NCc1nn[nH]n1 (single isomer, unassigned) [Example A20-1]
- IC50 (human Granzyme B (hGzmB)): < 100 nM
- solubility at 24 h [1, 2]: 535 µM
- solubility at 24 h [1, 3]: 358 µg/mL

SMILES: CC[C@H](C)[C@H](NC(=O)C1CCCCC1C(=O)O)C(=O)NCC(=O)N1c2ccccc2C[C@H]1C(=O)NCc1nn[nH]n1 (single isomer, unassigned) [Example A20-2]
- IC50 (human Granzyme B (hGzmB)): < 100 nM
- Solubility in aqueous PBS Buffer (1X, pH 7.4), uM [1]: 641 uM
- Solubility in aqueous PBS Buffer (1X, pH 7.4), ug/mL [1]: 429 ug/mL

SMILES: CC[C@H](C)[C@H](NC(=O)C1CC=CCC1C(=O)O)C(=O)NCC(=O)N1c2ccccc2C[C@H]1C(=O)NCc1nn[nH]n1 (single isomer, unassigned) [Example A21-1]
- IC50 (human Granzyme B (hGzmB)): < 100 nM
- solubility at 24 h [1, 2]: > 750 µM
- solubility at 24 h [1, 3]: > 425 µg/mL

SMILES: CC[C@H](C)[C@H](NC(=O)C1CC=CCC1C(=O)O)C(=O)NCC(=O)N1c2ccccc2C[C@H]1C(=O)NCc1nn[nH]n1 (single isomer, unassigned) [Example A21-2]
- IC50 (human Granzyme B (hGzmB)): < 100 nM
- Solubility in aqueous PBS Buffer (1X, pH 7.4), uM [1]: >750 uM
- Solubility in aqueous PBS Buffer (1X, pH 7.4), ug/mL [1]: >425 ug/mL

SMILES: CC[C@H](C)[C@H](NC(=O)C1CCCC1C(=O)O)C(=O)NCC(=O)N1c2ccccc2C[C@H]1C(=O)NCc1nn[nH]n1 (single isomer, unassigned) [Example A22-1]
- IC50 (human Granzyme B (hGzmB)): < 100 nM
- solubility at 24 h [1, 2]: > 750 µM
- solubility at 24 h [1, 3]: > 416 µg/mL

SMILES: CC[C@H](C)[C@H](NC(=O)C1CCCC1C(=O)O)C(=O)NCC(=O)N1c2ccccc2C[C@H]1C(=O)NCc1nn[nH]n1 (single isomer, unassigned) [Example A22-2]
- IC50 (human Granzyme B (hGzmB)): < 100 nM
- Solubility in aqueous PBS Buffer (1X, pH 7.4), uM [1]: >750 uM
- Solubility in aqueous PBS Buffer (1X, pH 7.4), ug/mL [1]: >416 ug/mL

SMILES: CC[C@H](C)[C@H](NC(=O)C1CCCCC1C(=O)O)C(=O)NCC(=O)N1c2ccccc2C[C@H]1C(=O)NCc1nn[nH]n1 (single isomer, unassigned) [Example A23-1]
- IC50 (human Granzyme B (hGzmB)): < 100 nM
- Solubility in aqueous PBS Buffer (1X, pH 7.4), uM [1]: >750 uM
- Solubility in aqueous PBS Buffer (1X, pH 7.4), ug/mL [1]: >426 ug/mL

SMILES: CC[C@H](C)[C@H](NC(=O)C1CCCCC1C(=O)O)C(=O)NCC(=O)N1c2ccccc2C[C@H]1C(=O)NCc1nn[nH]n1 (single isomer, unassigned) [Example A23-2]
- IC50 (human Granzyme B (hGzmB)): < 100 nM
- Solubility in aqueous PBS Buffer (1X, pH 7.4), uM [1]: 679 uM
- Solubility in aqueous PBS Buffer (1X, pH 7.4), ug/mL [1]: 386 ug/mL

SMILES: CC[C@H](C)[C@H](NC(=O)C1CC1C(=O)O)C(=O)NCC(=O)N1c2ccccc2C[C@H]1C(=O)NCc1nn[nH]n1 (single isomer, unassigned) [Example A26-1]
- IC50 (human Granzyme B (hGzmB)): < 100 nM
- solubility at 24 h [1, 2]: > 750 µM
- solubility at 24 h [1, 3]: > 395 µg/mL

SMILES: CC[C@H](C)[C@H](NC(=O)C1CC1C(=O)O)C(=O)NCC(=O)N1c2ccccc2C[C@H]1C(=O)NCc1nn[nH]n1 (single isomer, unassigned) [Example A26-2]
- IC50 (human Granzyme B (hGzmB)): < 100 nM
- Solubility in aqueous PBS Buffer (1X, pH 7.4), uM [1]: 685 uM
- Solubility in aqueous PBS Buffer (1X, pH 7.4), ug/mL [1]: 361 ug/mL

SMILES: CC[C@H](C)[C@H](NC(=O)C(C)CC(=O)O)C(=O)NCC(=O)N1c2ccccc2C[C@H]1C(=O)NCc1nn[nH]n1 (single isomer, unassigned) [Example A30-1]
- IC50 (human Granzyme B (hGzmB)): < 100 nM
- solubility at 24 h [1, 2]: > 750 µM
- solubility at 24 h [1, 3]: > 396 µg/mL

SMILES: CC[C@H](C)[C@H](NC(=O)C(C)CC(=O)O)C(=O)NCC(=O)N1c2ccccc2C[C@H]1C(=O)NCc1nn[nH]n1 (single isomer, unassigned) [Example A30-2]
- IC50 (human Granzyme B (hGzmB)): < 100 nM
- Solubility in aqueous PBS Buffer (1X, pH 7.4), uM [1]: >750 uM
- Solubility in aqueous PBS Buffer (1X, pH 7.4), ug/mL [1]: >396 ug/mL

SMILES: CC[C@H](C)[C@H](NC(=O)C(CCC(=O)O)c1ccccc1)C(=O)NCC(=O)N1c2ccccc2C[C@H]1C(=O)NCc1nn[nH]n1 (single isomer, unassigned) [Example A54-1]
- IC50 (human Granzyme B (hGzmB)): < 100 nM
- solubility at 24 h [1, 2]: 451 µM
- solubility at 24 h [1, 3]: 273 µg/mL

SMILES: CC[C@H](C)[C@H](NC(=O)C(CCC(=O)O)c1ccccc1)C(=O)NCC(=O)N1c2ccccc2C[C@H]1C(=O)NCc1nn[nH]n1 (single isomer, unassigned) [Example A54-2]
- IC50 (human Granzyme B (hGzmB)): < 100 nM
- Solubility in aqueous PBS Buffer (1X, pH 7.4), uM [1]: >750 uM
- Solubility in aqueous PBS Buffer (1X, pH 7.4), ug/mL [1]: >454 ug/mL

SMILES: CC[C@H](C)[C@H](NC(=O)Cc1ccccc1)C(=O)NCC(=O)N1c2ccccc2C[C@H]1C(=O)NCc1nn[nH]n1 [Example A1, (2S)-1-{2-[(2S,3S)-3-Methyl-2-(2-Phenylacetamido)Pentanamido]Acetyl}-N-(2H-1,2,3,4-Tetrazol-5-Ylmethyl)-2,3-Dihydro-1H-Indole-2-Carboxamide]
- IC50 (human Granzyme B (hGzmB)): 100 to 1000 nM
- solubility at 24 h [1, 2]: 144 µM
- solubility at 24 h [1, 3]: 77 µg/mL

SMILES: CC[C@H](C)[C@H](NC(=O)Cc1ccccc1)C(=O)NCC(=O)N1c2ccc(NC(=O)OC(C)(C)C)cc2C[C@H]1C(=O)NCc1nn[nH]n1 [Example C31, Tert-Butyl N-[(2S)-1-{2-[(2S,3S)-3-Methyl-2-(2-Phenylacetamido)Pentanamido]Acetyl}-2-[(2H-1,2,3,4-Tetrazol-5-Ylmethyl)Carbamoyl]-2,3-Dihydro-1H-Indol-5-Yl]Carbamate]
- IC50 (human Granzyme B (hGzmB)): 100 to 1000 nM

SMILES: CC[C@H](C)[C@H](NC(=O)Cc1ccccc1)C(=O)NCC(=O)N1c2ccc(NC(C)(C)C)cc2C[C@H]1C(=O)NCc1nn[nH]n1 [Example C33, (2S)-5-(Tert-Butylamino)-1-{2-[(2S,3S)-3-Methyl-2-(2-Phenylacetamido)Pentanamido]Acetyl}-N-(2H-1,2,3,4-Tetrazol-5-Ylmethyl)-2,3-Dihydro-1H-Indole-2-Carboxamide]
- IC50 (human Granzyme B (hGzmB)): > 10000 nM

SMILES: CC[C@H](C)[C@H](NC(=O)Cc1ccccc1)C(=O)NCC(=O)N1c2ccc([N+](C)(C)C)cc2C[C@H]1C(=O)NCc1nn[nH]n1 [Example C34, (2S)—N,N,N-Trimethyl-1-{2-[(2S,3S)-3-Methyl-2-(2-Phenylacetamido)Pentanamido]Acetyl}-2-[(2H-1,2,3,4-Tetrazol-5-Ylmethyl)Carbamoyl]-2,3-Dihydro-1H-Indol-5-Aminium Iodide]
- IC50 (human Granzyme B (hGzmB)): > 10000 nM

SMILES: CC[C@H](C)[C@H](NC(=O)Cc1ccccc1)C(=O)NCC(=O)N1c2ccc(NCc3ccccc3)cc2C[C@H]1C(=O)NCc1nn[nH]n1 [Example C35]
- IC50 (human Granzyme B (hGzmB)): > 10000 nM

SMILES: O=C(O)CCC(=O)N[C@H](C(=O)NCC(=O)N1c2ccccc2C[C@H]1C(=O)NCc1nn[nH]n1)c1ccccc1 [Example C38, 3-{[(S)-({2-Oxo-2-[(2S)-2-[(2H-1,2,3,4-Tetrazol-5-Ylmethyl)Carbamoyl]-2,3-Dihydro-1H-Indol-1-Yl]Ethyl}Carbamoyl)(Phenyl)Methyl]Carbamoyl}Propanoic Acid]
- IC50 (human Granzyme B (hGzmB)): 100 to 1000 nM

SMILES: CC[C@H](C)[C@H](NC(=O)Cc1nn[nH]n1)C(=O)NCC(=O)N1c2ccccc2C[C@H]1C(=O)NCc1c[nH]nn1 [Example C39, (2S)-1-{2-[(2S,3S)-3-Methyl-2-[2-(2H-1,2,3,4-Tetrazol-5-Yl)Acetamido]Pentanamido]Acetyl}-N-(1H-1,2,3-Triazol-4-Ylmethyl)-2,3-Dihydro-1H-Indole-2-Carboxamide]
- IC50 (human Granzyme B (hGzmB)): < 100 nM

SMILES: CC[C@H](C)[C@H](NC(=O)OC(C)(C)C)C(=O)NCC(=O)N1c2ccccc2C[C@H]1C(=O)NCc1nn[nH]n1 [Example I-5, tert-Butyl N-[(1S,2S)-2-methyl-1-({2-oxo-2-[(2S)-2-[(2H-1,2,3,4-tetrazol-5-ylmethyl)carbamoyl]-2,3-dihydro-1H-indol-1-yl]ethyl}carbamoyl)butyl]carbamate]
- IC50 (human Granzyme B (hGzmB)): 1000 to 10000 nM
